# Read-outs that look alike come from different tables or passages of the source.
# How the values were obtained:
# physchem = experiment: physchem; set-up: chemical stability in PBS at 37 °C, HPLC-MS/MS, half-life from first-order degradation plot; conditions: PBS
# Procedure: (§1) In these assays, the variation of analytes concentration at four different incubation times both in PBS and in human plasma samples was monitored to evaluate their susceptibility toward spontaneous or enzymatic hydrolysis, respectively. By plotting any variation of analyte concentration vs. the incubation time, the corresponding degradation profiles in tested matrices were obtained. The analyte concentration (1 µM) used during the stability tests is generally smaller than its Michaelis–Menten constant (KM), and the enzymatic degradation rate is described by a first-order kinetic. Therefore, by plotting the natural logarithm of the quantitative data versus the incubation time, a linear function can be used, and its slope represents the degradation rate (k). Accordingly, with the linear function, the half-life (t1/2) of each tested compound can be calculated as follows: t1/2=[…] The plots of the natural logarithm of the quantitative data versus the incubation time of all the studied compounds were analyzed. […] Parameters beyond this value will be indicated as >120 min. […] The degradation plots in PBS and human plasma of our ester compounds are reported in Supporting Information (Figures S1–S6 and Table S1).
# in vitro = experiment: in vitro; set-up: stability in human plasma at 37 °C, HPLC-MS/MS, half-life from first-order degradation plot; conditions: plasma; human plasma; read-out: H-pl
# Procedure: as §1
# Panx-1 [1] = target: T1, Panx-1 (Mus musculus, UniProt Q9JIP4); experiment: two-electrode voltage clamp, Xenopus laevis oocytes, single dose […]; format: cell-based
# T1 construct: gene Panx1
# Panx-1 [2] = target: T1, Panx-1; experiment: two-electrode voltage clamp, Xenopus laevis oocytes expressing mouse pannexin1; format: cell-based
# Panx-1 [3] = target: T1, Panx-1; experiment: two-electrode voltage clamp in oocytes, […] CBX applied in each experiment; format: cell-based; conditions: read-out: % inhibition at 100 μM
# T1 sequence (Q9JIP4 whole entry): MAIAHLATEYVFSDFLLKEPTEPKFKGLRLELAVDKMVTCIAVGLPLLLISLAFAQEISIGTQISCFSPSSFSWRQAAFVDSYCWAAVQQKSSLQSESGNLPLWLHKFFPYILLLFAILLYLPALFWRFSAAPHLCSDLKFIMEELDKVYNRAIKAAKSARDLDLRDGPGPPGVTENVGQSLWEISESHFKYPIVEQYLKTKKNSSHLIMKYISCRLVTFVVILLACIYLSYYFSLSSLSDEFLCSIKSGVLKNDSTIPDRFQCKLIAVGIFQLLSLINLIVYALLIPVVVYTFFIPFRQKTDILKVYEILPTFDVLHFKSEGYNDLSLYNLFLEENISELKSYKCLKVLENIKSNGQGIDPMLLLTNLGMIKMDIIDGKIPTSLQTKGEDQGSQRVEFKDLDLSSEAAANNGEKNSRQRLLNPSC
SMILES,half-life at 1 µM (physchem) [h],half-life at 1 µM (in vitro) [h],IC50 (Panx-1 [2]) [µM],further results
"CCOC(=O)c1cn(CCc2ccccc2)c2ccc([N+](=O)[O-])cc2c1=O [4b, Ethyl 6-nitro-4-oxo-1-phenethyl-1,4-dihydroquinoline-3-carboxylate]",> 2,> 2,,
"CCOC(=O)c1cn(CCCCc2ccccc2)c2ccc([N+](=O)[O-])cc2c1=O [4d, Ethyl 6-nitro-4-oxo-1-(4-phenylbutyl)-1,4-dihydroquinoline-3-carboxylate]",> 2,> 2,,
"CCOC(=O)c1cn(CCCCCc2ccccc2)c2ccc([N+](=O)[O-])cc2c1=O [4e, Ethyl 6-nitro-4-oxo-1-(5-phenylpentyl)-1,4-dihydroquinoline-3-carboxylate]",> 2,> 2,,
"CCOC(=O)c1cn(Cc2ccc(S(N)(=O)=O)cc2)c2ccc([N+](=O)[O-])cc2c1=O [4f, Ethyl 6-nitro-4-oxo-1-(4-sulfamoylbenzyl)-1,4-dihydroquinoline-3-carboxylate]",> 2,> 2,,
"O=C(O)c1cn(Cc2ccccc2)c2ccc([N+](=O)[O-])cc2c1=O [6a, 1-Benzyl-6-nitro-4-oxo-1,4-dihydroquinoline-3-carboxylic acid]",,,,inhibition at 50 µM (Panx-1 [1]; read-out: TABLE 1): 53 ± 2.9%
"CCCNS(=O)(=O)c1ccc(Nc2c(C(=O)O)cnc3ccccc23)cc1 [13d, 4-[4-(N-Propylsulfamoyl)phenyl]aminoquinoline-3-carboxylic acid]",,,,inhibition at 50 µM (Panx-1 [1]; read-out: TABLE 2): 66 ± 4%
"CC1(C)[C@@H](OC(=O)CCC(=O)O)CC[C@]2(C)[C@H]3C(=O)C=C4[C@@H]5C[C@@](C)(C(=O)O)CC[C@]5(C)CC[C@@]4(C)[C@]3(C)CC[C@@H]12 [CBX, carbenoxolone]",,,,inhibition at 100 µM (Panx-1 [3]): 100%
"Nc1ccc2c(c1)c(=O)c(C(=O)O)cn2Cc1ccccc1 [compound 8, 6-Amino-1-benzyl-4-oxo-1,4-dihydroquinoline-3-carboxylic acid]",,,,inhibition at 50 µM (Panx-1 [1]; read-out: TABLE 1): 57 ± 5.9%

# Now from value to compound, other results behind:
half-life at 1 µM (physchem) [h],half-life at 1 µM (in vitro) [h],IC50 (Panx-1 [2]) [µM],SMILES,further results
,,3,"NS(=O)(=O)c1ccc(Cn2cc(C(=O)O)c(=O)c3cc([N+](=O)[O-])ccc32)cc1 [6f, 6-Nitro-4-oxo-1-(4-sulfamoylbenzyl)-1,4-dihydroquinoline-3-carboxylic acid]",
,,1.5,"O=C(O)c1ccc(Cn2cc(C(=O)O)c(=O)c3cc([N+](=O)[O-])ccc32)cc1 [6g, 1-(4-Carboxybenzyl)-6-nitro-4-oxo-1,4-dihydroquinoline-3-carboxylic acid]",
,,4.2,"CCCN(CCC)S(=O)(=O)c1ccc(Nc2c(C(=O)O)cnc3ccccc23)cc1 [13e, 4-[4-(N,N-Dipropylsulfamoyl)phenyl]aminoquinoline-3-carboxylic acid]",
,,15.5,"O=C(O)c1ccc(Nc2c(C(=O)O)cnc3ccccc23)cc1 [13g, 4-[(4-Carboxyphenyl)amino]quinoline-3-carboxylic acid]",

# Reference: PMC9916356, “Design, Synthesis and Pharmacological Evaluation of New Quinoline-Based Panx-1 Channel Blockers” (International Journal of Molecular Sciences, 2023)
